Assay results from paper PMC10267362, “Boron-peptide conjugates with angiopep-2 for boron neutron capture therapy” (Frontiers in Medicine, 2023).

What was measured:
[1] = Boron biodistribution in intracranial glioma mouse model (ICP-AES); type: in vivo
Method: The glioma mouse model was established as reported recently ([16]). HS683 cells were transfected with luciferase-expressing vector (Lenti-UTR-Luc-Blank Vector; Promega). BALB/c nude mice were anesthetized by intraperitoneal injection of tribromoethanol (150 mg/kg) and then placed in a stereotaxic instrument. A hole was made in the mouse skull and 5 μL of HS683 cell suspension (2 × 10^7 cells/mL) was injected into the brain using the stereotaxic instrument. The growth state of glioma tumours in mice was monitored by bioluminescent imaging (IVIS 3D Perkin Elmer). Animal experiments were performed according to the protocols approved by the Animal Use Review Board and Ethical Committee of Shenzhen Bay Laboratory (permit no. AFRQS202101). After treatment with boronated peptides or BPA (HEC Pharm, Dongguan, China), boron concentrations in human cells or mice tissues were measured by inductively coupled plasma atomic emission spectroscopy (abbr., ICP-AES; Leeman’s Prodigy 7) using published methods ([16]). Proper microenvironmental components are critical for the treatment response of glioma ([19], [20]). Thus, we constructed an intracranial mouse glioma model based on HS683 cells and a research plan based on this model for testing ANG-B effects (Figure 3A). In order to monitor the intracranial tumour growth, we used luciferase-expressing cells for this mouse model (Supplementary Figure S5A). Boron biodistribution was examined at the time point for thermal neutron irradiation. 2.5 mM/kg of ANG-B or BPA (in 5% fructose solution) was injected into mice, and tissues or organs from the tumour, blood, brain, lung, liver, heart, spleen, and kidney were then collected at indicated time points for measuring boron concentrations (Supplementary Figure S5B). […] At 4 h after drug injection, the T/N ratio of ANG-B was 5.61 ± 1.0 and the T/B ratio was 9.42 ± 2.47.

[2] = test system: HS683 intracranial glioma; assay: TUNEL apoptosis assay in mouse tumours after BNCT; type: in vivo; details: 1 day or 7 days after treatment
Method: DNA fragmentation in apoptosis induced by BNCT was assessed using the one-step TUNEL apoptosis assay kit following the manufacturer’s protocol (Abbkine Scientific Co., Ltd., China).
In order to evaluate the ^18F-FDG uptake in tumour tissues under different treatment conditions, SUV data were calculated based on a reference region ([23]). […] Based on the 3D PET image data, we also estimated tumour volume before and after BNCT treatment for each mouse (Figure 4B). […] By contrast, tumour size in the control group kept increasing.
Supplementary Figure 6. In vivo effects of ANG-B based BNCT. (A) Body weight of glioma mouse model after treatment. (B) SUVmax analyses (indicating of FDG uptake) of glioma tumors in PET/CT imaging before and after BNCT treatment. (C) Apoptotic cells in tumor at 1 day or 7days after ANG-B based BNCT treatment as measured by TUNEL assay. Mann–Whitney U test; *p < 0.05.

HS683 cells [3] = assay: Clonogenic cell survival assay after BNCT (thermal neutron irradiation) in vitro; type: cell-based, human; details: 5 mM drug for 12 h, neutron flux 3.0 ± 0.4 × 10^11 n/cm^2 in 2 h, colonies after 2 weeks, mean ± SD, three biological repeats
Method: Thermal neutron radiation was given as described previously ([16]). A high-current proton beam (3.5 MeV) generated from a radio frequency quadrupole (RFQ) accelerator at the China Spallation Neutron Source was used to bombard a lithium target and produce thermal neutrons (0.5 eV-10 keV) for BNCT.
HS683 cells (10^6/sample) were prepared in centrifuge tubes (1.5 mL, Eppendorf) and treated with ANG-B, TAT-B, T7-B, or BPA at various concentrations (0.0–5.0 mM) for 12 h. Epithermal neutrons were given with a total neutron flux of 3.0 ± 0.4 × 10^11 n/cm^2 given in 2 h. The drug-containing medium was then washed off and desirable numbers of cells in single-cell suspension were seeded into 6-well plates to grow colonies in 2 weeks. Colonies were fixed in 70% ethanol at room temperature for 10 min, and stained with 0.1% crystal violet. Colonies with more than 50 cells were scored as clonogenic survivors.
BNCT eliminates cancer cells by heavy charged particle rays, where reproductive cell death plays a vital role in the treatment outcome ([17], [18]). Here we employed the clonogenic survival assay to analyze the reproductive cell death of glioma cells after BNCT treatment in vitro. To guarantee the performance of BNCT in vitro, we designed and manufactured a tube-holding device for thermal neutron irradiation of cells (Figure 2A). BNCT with these boron delivery agents were tested on HS683 cells. […] BNCT with 5 mM ANG-B caused 86.5% ± 5.3% of clonogenic cell death. […] Therefore, ANG-B was selected for the following in vivo study.

[4] = test system: HS683 intracranial glioma; assay: In vivo BNCT in intracranial glioma mouse model, 18F-FDG PET/CT; details: for SUV (18F-FDG uptake) in tumour tissues after BNCT, compared to control group: PET/CT, p < 0.05
Method: The glioma mouse model was established as reported recently ([16]). HS683 cells were transfected with luciferase-expressing vector (Lenti-UTR-Luc-Blank Vector; Promega). BALB/c nude mice were anesthetized by intraperitoneal injection of tribromoethanol (150 mg/kg) and then placed in a stereotaxic instrument. A hole was made in the mouse skull and 5 μL of HS683 cell suspension (2 × 10^7 cells/mL) was injected into the brain using the stereotaxic instrument. The growth state of glioma tumours in mice was monitored by bioluminescent imaging (IVIS 3D Perkin Elmer). Animal experiments were performed according to the protocols approved by the Animal Use Review Board and Ethical Committee of Shenzhen Bay Laboratory (permit no. AFRQS202101).
During BNCT, five mice per group were injected with 2.5 mM/kg of BPA (5% fructose solution) or ANG-B solution through the tail vein. 90 min later, mice were anesthetized with an intraperitoneal injection of tribromoethanol at a dose of 150 mg/kg and then fixed in a mould for BNCT irradiation of the mouse head using a published method ([16]). Mice were treated with 2 kW of neutron flux for 2 h each time and four times for each mouse in 1 week, to achieve a total neutron flux of 12.5 ± 0.5 × 10^11 n/cm^2. Mice were anesthetized with 2% isoflurane at 25°C and imaged with PET/CT (nanoSCAN, Mediso) with 1.5 uCi/g ^18F-FDG at 1 day before or 31 days after BNCT. Image processing and analyses were performed by AMIDE (RRID: SCR_005940), where ROI, SUV values, and tumour volume were determined.
The glioma mouse model was further used in BCNT tests for ANG-B. The body weight of all the used mice was monitored during the whole process, where no obvious health issues with body weight loss were noticed (Supplementary Figure S6A). PET imaging is usually used to evaluate therapeutic response of glioma patients or mouse models ([16], [21], [22]). Therefore, we employed ^18F-FDG-based PET/CT to estimate intracranial tumour volume for each mouse 1 day before and 31 days after BNCT treatments (Figure 4A). An additional lower concentration of ANG-B at 1 mM/kg (i.e., ANG-B low) was included for comparison.

HS683 cells [5] = assay: Boron uptake in cells by ICP-AES; type: cell-based, human; details: 0–0.8 mM for 12 h, p < 0.05
Method: (§1) Cell lines established from human glioma (U87MG, U251, and HS683), melanoma (A375), non-small cell lung cancer (A549), and hepatocellular carcinoma (HepG2) were obtained from the National Infrastructure of Cell Line Resource in China, authenticated, and cultured in DMEM, supplemented with 10% fetal bovine serum (HyClone) and 100 IU/mL penicillin/streptomycin (all Sigma-Aldrich unless otherwise noted). Cells were routinely tested for mycoplasma using the Mycoplasma Test Kit (Cellorlab, China). All cells were maintained in a humidified incubator at 5% CO2 and 37°C after defrosting and cultured in the exponential growth phase before each experiment.
(§2) After treatment with boronated peptides or BPA (HEC Pharm, Dongguan, China), boron concentrations in human cells or mice tissues were measured by inductively coupled plasma atomic emission spectroscopy (abbr., ICP-AES; Leeman’s Prodigy 7) using published methods ([16]).
(§3) An efficient boron delivery agent should enhance boron uptake in cancer cells. Thus, we analyzed boron concentrations on 6 human cancer cell lines derived from glioma (U87MG, U251, and HS683), melanoma (A375), non-small cell lung cancer (A549), or hepatocellular carcinoma (HepG2) after treatment with various concentrations of ANG-B, TAT-B, or T7-B for 12 h. BPA was tested in parallel for comparison.
(§4) Figure 1 Boron concentrations in 6 human cell lines derived from glioma (U87MG, U251, and HS683), melanoma (A375), non-small cell lung cancer (A549), or hepatocellular carcinoma (HepG2). Cells were pre-exposed to 0–0.8 mM of ANG-B, TAT-B, T7-B, or BPA for 12 h. Boron concentrations were then analyzed by ICP-AES in HS683 (A), U251 (B), U87MG (C), A375 (D), HepG2 (E), or A549 cells (F). Mean values with standard errors are shown.

HepG2 cells = assay: Boron uptake in cells by ICP-AES; type: cell-based, human; details: 0–0.8 mM for 12 h, p < 0.05
Method: as §1, §2, §3, §4

A375 cells = assay: Boron uptake in cells by ICP-AES; type: cell-based, human; details: A375 cells (printed A357), 0–0.8 mM for 12 h, p < 0.05
Method: as §1, §2, §3, §4

[6] = melanoma patients; cited from earlier work
Text: Boron delivery agent is one of the critical factors limiting the expansion of BNCT application in cancer treatment. An ideal boron delivery agent should be low toxicity, high tumour uptake, quick blood clearance, T/N ratio > 3, and low accumulation in healthy tissues. Unfortunately, no existing boron delivery agents can fulfil all these requirements. Historically, BPA is the most popular boron delivery agent in clinical BNCT. Cancer cells usually promote cellular amino acid transport and result in increased uptake of BPA, especially in melanoma cells ([27]). A study evaluated the biodistributi ...

U87MG cells = assay: Boron uptake in cells by ICP-AES; type: cell-based, human; details: 0–0.8 mM for 12 h
Method: as §1, §2, §3, §4

[7] = 4 h after tail-vein injection of 2.5 mM/kg, intracranial HS683 glioma mice, ICP-AES, three mice per group
[8] = glioma mouse model, 2.5 mM/kg in 5% fructose solution, time not stated

Compound	glioma-targeting effects and blood clearance compared with BPA ([1]; 2.5 mM/kg tail vein, 1, 2, 4 or 6 h, glioma mouse model)	Tumour/blood (T/B) ratio of boron [1, 7]	Tumour/normal (T/N) tissue ratio of boron [1, 7]	apoptotic cells in mouse tumours after BNCT [2]	clonogenic cell death after BNCT (HS683 cells [3])	SUV (18F-FDG uptake) in tumour tissues after BNCT, compared to control group ([4]; 1 mM/kg (ANG-B low))	tumour volume at 31 days after BNCT treatment ([4]; 2.5 mM/kg, 18F-FDG PET imaging before and after BNCT)	SUV (18F-FDG uptake) in tumour tissues after BNCT, compared to control group ([4]; 2.5 mM/kg)	boron uptake compared with BPA (HS683 cells [5])	boron uptake compared with BPA (HepG2 cells)	boron uptake compared with BPA (A375 cells)	T/B ratio of boron [1, 8]	T/N ratio of boron [1, 8]	T/N ratio [6]	skin-to-blood ratio [6]	boron uptake compared with boronated peptides (U87MG cells)
TFFYGGSRGKRNNFKTEEYC [ANG-B, N-terminal boron-containing derivative of angiopep-2 with 10B-4-carboxyphenylboronic acid at N terminus and cysteine at C terminus]	significantly better	9.42 ± 2.47	5.61 ± 1.0	more apoptotic cells	86.5% ± 5.3%	significantly decreased SUV	significantly decreased tumour volume	significantly decreased SUV	significantly more boron uptake than BPA	significantly more boron uptake than BPA	significantly more boron uptake than BPA					
MASMTGGQQMG [T7-B, boron-peptide conjugate used as control]					54.5% ± 1.1%											
N[C@@H](Cc1ccc([10B](O)O)cc1)C(=O)O [BPA, ^10B-p-boronophenylalanine, reference compound]					73.3% ± 6.0%			significantly decreased SUV				approximately 2	approximately 2	3.40	1.31	took up more BPA
